Assay results reported in US20250154201A1, “PEPTIDE BINDING TO MESOTHELIN, AND USE THEREOF” (KYUNGPOOK NATIONAL UNIVERSITY INDUSTRY-ACADEMIC COOPERATION …, priority 2022, published 2025).

Experiments:
[1] = target: T1, mesothelin (Homo sapiens, UniProt Q13421); test: immunofluorescence binding to HEK-293T cells transiently transfected with mesothelin-GFP plasmid; format: cell-based; design: GFP; host or cells: HEK293T; conditions: 10 μM and 25 μM MSLN-pep, 25 μM Ctrl-pep; transfected and untransfected HEK-293T
Experimental: HEK293T cells were transiently transfected using Lipofectamine 3000 (Invitrogen) in 6-well plates according to the manufacturer's protocol. Prior to transfection, 2×10^5 cells were cultured in 6-well plates for 24 hours. To transfect one well, 7.5 μl of Lipofectamine 3000 reagent was diluted in 250 μl of Opti-MEM (Invitrogen) reagent, followed by a reaction at room temperature for 5 minutes. 5 μg of mesothelin-expressing plasmid pCMV6-AC-GFP vector DNA was diluted in 250 μl of Opti-MEM (Invitrogen) reagent, followed by a reaction at room temperature for 5 minutes. The mixture of two solutions were then mixed and reacted at room temperature for 10 minutes (a total of 500 μl per well). The old medium of the cells was immediately removed, and a 500 μl of DNA-transfection reagent-mixture was added to the cells before transfer to the incubator. After 24 hours of culture, the medium was again replaced with a pre-warmed growth medium containing serum. Culture was performed for 48 hours, and the newly inserted protein was expressed in the cells.
Taken together, it was found via immunofluorescence analysis that MSLN-pep specifically binds to mesothelin.
Target sequence in this assay (Q13421 with tags, fused parts or gaps): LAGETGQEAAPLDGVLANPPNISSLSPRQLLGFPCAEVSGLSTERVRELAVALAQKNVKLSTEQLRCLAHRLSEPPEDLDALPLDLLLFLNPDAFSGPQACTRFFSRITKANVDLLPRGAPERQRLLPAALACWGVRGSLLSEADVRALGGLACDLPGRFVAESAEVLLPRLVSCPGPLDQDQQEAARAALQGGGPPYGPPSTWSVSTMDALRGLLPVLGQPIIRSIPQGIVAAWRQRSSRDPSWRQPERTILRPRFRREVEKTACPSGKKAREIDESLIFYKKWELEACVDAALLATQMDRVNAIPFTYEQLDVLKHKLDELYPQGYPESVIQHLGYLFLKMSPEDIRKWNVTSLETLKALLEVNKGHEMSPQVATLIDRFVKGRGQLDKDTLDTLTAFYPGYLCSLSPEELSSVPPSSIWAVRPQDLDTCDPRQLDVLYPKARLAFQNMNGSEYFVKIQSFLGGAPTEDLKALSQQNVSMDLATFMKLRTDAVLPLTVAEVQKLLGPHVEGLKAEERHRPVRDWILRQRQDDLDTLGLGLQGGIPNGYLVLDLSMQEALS

[2] = system: PANC-1 and AsPC-1 cell lines; test: analysis of invasion (Matrigel-coated 24-transwell); format: cell-based, human; conditions: 24 hours
Experimental: PANC-1 and AsPC-1 cell lines were cultured using DMEM and RPMI-1640 media with 10% FBS added in 100 mm dish each at a concentration of 2×10^6 cells per well. After 24 hours, all media in 100 mm dishes were removed and replaced with DMEM and RPMI-1640 media without addition of 10% FBS to inhibit migratability of cell lines so as to be in a starvation state. After 24 hours, 300 μg/mL of Matrigel was coated on the upper chamber of 24-Transwell. Afterwards, PANC-1 and AsPC-1 cell lines were cultured in the upper chamber at a concentration of 2×10^4 cells in a 100 mm dish, 10% FBS was added to the lower chamber for the experimental group, and 0% FBS was added to the lower chamber for the control group to identify migratability. 3% ACN, 200 μM control peptide (Ctrl-pep), MSLN-pep 25. For 50, 100, and 200 μM groups, each cell line was cultured together in the upper chamber of the 24-Transwell, and 10% FBS was treated in the lower chamber. Each group was cultured at 37° C. for 24 hours, and then the cells were photographed (original magnification, ×100) for each concentration of peptides. Cells were stained with crystal violet (0.1%), and Image J, a computer program, was used for quantitative evaluation.
After pancreatic cancer cell lines PANC-1 and AsPC-1 were cultured in 24-transwells, all cells were starved for 24 hours to inhibit cell growth, and then treatment was performed in divided groups of 10% FBS, 0% FBS, 3% ACN+10% FBS, 200 μM NSSSVDK+10% FBS, 25 μM MSLN-pep+10% FBS, 50 μM MSLN-pep+10% FBS, 100 μM MSLN-pep+10% FBS, and 200 μM MSLN-pep+10% FBS.

[3] = system: pancreatic cancer cell lines PANC-1 and AsPC-1; test: internalization of FITC-labeled peptides (confocal microscopy); format: cell-based, human; conditions: 25 μM and 50 μM MSLN-pep, 50 uM NSSSVDK; 1 and 2 hours
Experimental: To observe the intracellular distribution of the internalized FITC-labeled peptide MSLN-pep, pancreatic cancer cell lines AsPC-1 and PANC-1 cells (2.5×10^5 cell counts) were dispensed on a 4-well chamber slide. After complete adhesion, the cell culture medium was replaced with a fresh medium containing FITC-labeled peptides (25 μM, 50 μM), […], and the cells were washed with PBS 3 times for 3˜5 minutes, followed by fixation (4% paraformaldehyde; PFA) for 5 minutes. Thereafter, washing with PBS was performed. After staining the nucleus with DAPI and mounting on a glass slide with a fading reagent, internalization of FITC-labeled MSLN-pep was observed under confocal microscopy.

[4] = target: T1, mesothelin; test: phage-binding ELISA and phage immunofluorescence staining of phage clones; design: GFP; host or cells: HEK293T; conditions: phage clone, compared to other phage clones
From the text: A phage peptide library based on the T7 415-1b phage vector, represented by CX7C (C, cysteine; X, any amino acid residue) was designed according to the manufacturer's instructions (Novagen, Madison, WI). The phage library has approximately 1×10^9 plaque-forming unit (pfu). In other words, HEK-293T cells transfected with a mesothelin-expressing plasmid pCMV6-AC-GFP vector were dispensed in a 35 mm dish and cultured to meet a confluency of 60-70%. For transient transfection of HEK-293T cells, the cells were treated with Lipofectamine 3000 (Invitrogen) and cultured for 48 hours. First, phage libraries with 1×109 plaque-forming unit (pfu) were cultured in untransfected HEK-293T cells at 4° C. for 30 minutes. […] The eluate was used for titration, the remaining eluted phage clones were lysed in 10 ml of LB medium for amplification for the next cycle, and the process was repeated 5 times. […]
To screen peptides specifically binding to mesothelin, the present inventors first prepared HEK-293T cells transiently transfected with a mesothelin-GFP plasmid. […] As a result of observing mesothelin-GFP expression via immunofluorescence analysis, transfection was detected at each time point compared to untransfected HEK-293T cells (FIG. 2A). […]
Target sequence in this assay (Q13421 with tags, fused parts or gaps): as above

[5] = target: T1, mesothelin; test: co-localization of TAMRA-labeled MSLN-pep with mesothelin antibody (confocal microscopy); format: cell-based; design: endogenous in cells; conditions: AsPC-1, PANC-1, BxPC-3
Experimental: Pancreatic cancer cell lines AsPC-1, PANC-1, and BxPC-3 were cultured in a 4-well chamber and then treated with mesothelin antibodies to determine the location where mesothelin is expressed.
Target sequence in this assay (Q13421 with tags, fused parts or gaps limits assumed): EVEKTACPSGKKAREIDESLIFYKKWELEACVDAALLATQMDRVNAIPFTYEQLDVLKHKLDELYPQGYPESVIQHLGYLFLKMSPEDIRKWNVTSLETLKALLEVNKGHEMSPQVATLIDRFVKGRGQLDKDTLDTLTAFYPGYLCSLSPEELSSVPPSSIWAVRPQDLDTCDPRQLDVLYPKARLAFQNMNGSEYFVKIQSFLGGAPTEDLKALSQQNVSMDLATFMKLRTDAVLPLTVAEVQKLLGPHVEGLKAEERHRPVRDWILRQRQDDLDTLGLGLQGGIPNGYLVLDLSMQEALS

CC[C@H](C)[C@@H]1NC(=O)[C@H]([C@@H](C)O)NC(=O)[C@@H](N)CSSC[C@@H](C(=O)O)NC(=O)[C@H]([C@@H](C)O)NC(=O)[C@H](CC(C)C)NC(=O)[C@H](CO)NC(=O)[C@H](Cc2c[nH]c3ccccc23)NC(=O)[C@H](CC(C)C)NC1=O [MSLN-pep]
specific binding (immunofluorescence) [1]: bound only to the mesothelin-expressing portion | invasiveness compared to treatment of 10% FBS ([2]; 25 μM + 10% FBS): no difference in the migratability and invasiveness | invasiveness ([2]; 50, 100 and 200 μM + 10% FBS): suppressed with increasing concentrations of MSLN-pep | binding and internalization into cells [3]: internalization into cells occurs in proportion to the increase in the concentration | binding to mesothelin through phage ELISA and phage immunofluorescence staining [4]: binds to mesothelin in high degree | location of binding site relative to mesothelin expression [5]: binding took place at the same spot where the mesothelin is expressed
